Source: patent US7297353B2, “Use of anemonin for treating aseptic inflammations” (priority 2000, dated 2007)

Key:
injured skin = experiment: Effect of anemonin on the injured skin in mice (visual irritation score); assay type: in vivo, ICR mice; parameters: Irritation Score: scale not given here
Protocol: ICR mice were utilized for the studies. The dorsal hair of mice was cut and injured 24 hour before experiment. 25% ethanol (0.5 ml) and the liniment solution of anemonin (0.05, 0.5, 5 mg/ml, 0.5 ml) were coated 4 h a day for 7 days on the area of hairless which was 2×2 cm^2 per mice. The skin irritation was evaluated by visual scoring (Table C-3 and C-4) everyday. The mice were continuously observed for 7 days after stopping applying. […] The injured skin of application 0.5 mg/ml anemonin also healed up within 7 days.

[1] = tested on: murine spleens cells stimulated with LPS; experiment: B-cell proliferation, spleen cells stimulated with LPS ([3H]-thymidine uptake); assay type: cell-based, ICR mice; conditions: for [^3H]-TDRincorparation(CPM × 10^−3): LPS 10 μg/ml, 48 hrs
Protocol: Fresh spleen cells were obtained from ICR mice (male, 7-9 weeks old), 5×10^5 of spleen cells were cultured in 96-well flat plates with […] of RPMI 1640 media containing 10% FBS, 100 U/ml penicillin and 100 μg/ml streptomyin in a humidified, 37° C., 5% CO2 incubator for 48 hrs. The cultures were either unstimulated, or were stimulated with 5 μg/ml of ConA or 10 μg/ml of LPS to induce T cells or B cells proliferative responses respectively. The compounds were added in cultures with indicated concentrations to test their bioactivities. Profileration was assessed in terms of uptake of [^3H]-thymidine during 6-12 hours pulsing with 20 kBq [^3H]-thymidine/well, then the cells were harvested by a Basic 96 harvester, and counted in a 1540 MicroBeta Trilux (PerkinElmer Life Sciences).

[2] = Stability test for prolonged storage; assay type: physicochemical; conditions: anemonin in the present medication
Source text: According to preferred embodiments of the present invention, when the extracted anemonin or anemonin extract liquor is mixed with one or more Chinese herbs or chemical pharmaceuticals, the stability of the anemonin is not affected by the combined Chinese herbs, chemical components contained therein or the pharmaceuticals, and the amenonin can still effectively treat various aseptic inflammations.

[3] = tested on: staphylococcus, streptococcus, Bacillus diphtheriae, Mycobacterium tuberculosis, and E. coli; conditions: cited from earlier work
[4] = 0.5 mg/ml on injured skin, Day 7, Treatment
[5] = 0.5 mg/ml on injured skin, Day 8, Observation
[6] = 0.5 mg/ml on injured skin, Day 9, Observation
[7] = 0.5 mg/ml on injured skin, Day 10, Observation
[8] = 0.5 mg/ml on injured skin, Day 11, Observation
[9] = 0.5 mg/ml on injured skin, Day 12, Observation
[10] = 0.5 mg/ml on injured skin, Day 13, Observation
[11] = 0.5 mg/ml on injured skin, Day 14, Observation
[12] = 5 mg/ml on injured skin, Day 2, Treatment
[13] = 5 mg/ml on injured skin, Day 3, Treatment
[14] = 5 mg/ml on injured skin, Day 4, Treatment
[15] = 5 mg/ml on injured skin, Day 5, Treatment
[16] = 5 mg/ml on injured skin, Day 6, Treatment
[17] = 5 mg/ml on injured skin, Day 7, Treatment
[18] = 5 mg/ml on injured skin, Day 8, Observation
[19] = 5 mg/ml on injured skin, Day 9, Observation
[20] = 5 mg/ml on injured skin, Day 10, Observation
[21] = 5 mg/ml on injured skin, Day 11, Observation
[22] = 5 mg/ml on injured skin, Day 12, Observation
[23] = 5 mg/ml on injured skin, Day 13, Observation
[24] = 5 mg/ml on injured skin, Day 14, Observation

O=C1C=CC2(CCC23C=CC(=O)O3)O1 (centres unmarked) [Anemonin, anemonin]
Irritation Grade (injured skin; [4]): No (No irritation <0.5)
Irritation Score (injured skin; [4]): 0
Irritation Grade (injured skin; [5]): No (No irritation <0.5)
Irritation Score (injured skin; [5]): 0
Irritation Grade (injured skin; [6]): No (No irritation <0.5)
Irritation Score (injured skin; [6]): 0
Irritation Grade (injured skin; [7]): No (No irritation <0.5)
Irritation Score (injured skin; [7]): 0
Irritation Grade (injured skin; [8]): No (No irritation <0.5)
Irritation Score (injured skin; [8]): 0
Irritation Grade (injured skin; [9]): No (No irritation <0.5)
Irritation Score (injured skin; [9]): 0
Irritation Grade (injured skin; [10]): No (No irritation <0.5)
Irritation Score (injured skin; [10]): 0
Irritation Grade (injured skin; [11]): No (No irritation <0.5)
Irritation Score (injured skin; [11]): 0
Irritation Grade (injured skin; 5 mg/ml on injured skin, Day 1, Treatment): Moderate (Moderate irritation <6.0)
Irritation Grade (injured skin; [12]): Moderate (Moderate irritation <6.0)
Irritation Score (injured skin; [12]): 3.4
Irritation Grade (injured skin; [13]): Moderate (Moderate irritation <6.0)
Irritation Score (injured skin; [13]): 3.3
Irritation Grade (injured skin; [14]): Moderate (Moderate irritation <6.0)
Irritation Score (injured skin; [14]): 3.3
Irritation Grade (injured skin; [15]): Moderate (Moderate irritation <6.0)
Irritation Score (injured skin; [15]): 3.3
Irritation Grade (injured skin; [16]): Moderate (Moderate irritation <6.0)
Irritation Score (injured skin; [16]): 4
Irritation Grade (injured skin; [17]): Moderate (Moderate irritation <6.0)
Irritation Score (injured skin; [17]): 4
Irritation Grade (injured skin; [18]): Moderate (Moderate irritation <6.0)
Irritation Score (injured skin; [18]): 4
Irritation Grade (injured skin; [19]): Moderate (Moderate irritation <6.0)
Irritation Score (injured skin; [19]): 4
Irritation Grade (injured skin; [20]): Moderate (Moderate irritation <6.0)
Irritation Score (injured skin; [20]): 3.5
Irritation Grade (injured skin; [21]): Moderate (Moderate irritation <6.0)
Irritation Score (injured skin; [21]): 3
Irritation Grade (injured skin; [22]): Moderate (Moderate irritation <6.0)
Irritation Score (injured skin; [22]): 2.5
Irritation Grade (injured skin; [23]): Mild (Mide irritation <2.09)
Irritation Score (injured skin; [23]): 2
Irritation Grade (injured skin; [24]): Mild (Mide irritation <2.09)
Irritation Score (injured skin; [24]): 2
Irritation Score (injured skin; 5 mg/ml, 0.5 ml, 4 h a day for 7 days on injured skin, Day 1, Treatment): 3.1
irritation on injured skin (injured skin; application of 0.05 mg/ml): did not cause any irritation
irritation on injured skin (injured skin; application of 0.5 mg/ml, after 24 h application, then began to alleviate): slight erythema
irritation on injured skin (injured skin; application of 5 mg/ml): mild to moderate erythema
[^3H]-TDRincorparation(CPM × 10^−3) ([1]; 0.001 μg/ml): 52.0 ± 2.27 CPM × 10^−3
[^3H]-TDRincorparation(CPM × 10^−3) ([1]; 0.01 μg/ml): 47.2 ± 3.41 CPM × 10^−3
[^3H]-TDRincorparation(CPM × 10^−3) ([1]; 0.1 μg/ml): 47.5 ± 3.60 CPM × 10^−3
[^3H]-TDRincorparation(CPM × 10^−3) ([1]; 1 μg/ml): 34.4 ± 2.41 CPM × 10^−3
[^3H]-TDRincorparation(CPM × 10^−3) ([1]; 10 μg/ml): 0.11 ± 0.15 CPM × 10^−3
[^3H]-TDRincorparation(CPM × 10^−3) ([1]; 100 μg/ml): 0.17 ± 0.26 CPM × 10^−3
B-cell proliferation ([1]; 1-100 μg/ml): significantly inhibited
stability on prolonged storage [2]: at least 5 years
inhibitory against bacteria [3]: inhibitory
